The OligoGym collection
“And” between values parts separate entries of the source, which are not always exact repeats. Equal values may be shown once. HELM strings list units from the 5' end as sugar, base in round brackets, then linkage (d deoxyribose, r ribose, m 2'-O-methyl, p phosphodiester). Methylation of C is not given here. [moe] = 2'-O-(2-methoxyethyl) (MOE); [cEt] = constrained ethyl (cEt); [sp] = phosphorothioate linkage

Target: HBV
Conditions: ASO

Substance | target mRNA inhibition (HepG2, 0.07 µM) | other results
RNA1{[moe](T)[sp].[moe](T)[sp].[moe](T)[sp].[moe](A)[sp].d(T)[sp].d(G)[sp].d(C)[sp].d(C)[sp].d(T)[sp].d(A)[sp].d(C)[sp].d(A)[sp].d(G)[sp].[moe](C)[sp].[moe](C)[sp].[moe](T)[sp].[moe](C)}$$$$V2.0 | 54% and 37% | 
RNA1{[moe](G)[sp].[cEt](T)[sp].[cEt](G)[sp].d(A)[sp].d(A)[sp].d(G)[sp].d(C)[sp].d(G)[sp].d(A)[sp].d(A)[sp].d(G)[sp].d(T)[sp].d(G)[sp].[cEt](C)[sp].[cEt](A)[sp].[moe](C)}$$$$V2.0 | 68% and 75% | 
RNA1{[moe](G)[sp].[moe](C)[sp].[moe](A)[sp].[moe](C)[sp].[moe](T)[sp].d(A)[sp].d(G)[sp].d(T)[sp].d(A)[sp].d(A)[sp].d(A)[sp].d(C)[sp].d(T)[sp].d(G)[sp].[moe](A)[sp].[moe](G)}$$$$V2.0 | 60% | 
RNA1{[moe](A)[sp].[cEt](C)[sp].d(T)[sp].d(G)[sp].d(G)[sp].d(A)[sp].d(G)[sp].d(C)[sp].d(C)[sp].d(A)[sp].d(C)[sp].d(C)[sp].[cEt](A)[sp].[moe](G)[sp].[cEt](C)[sp].[moe](A)}$$$$V2.0 | 67% and 55% | 
RNA1{[moe](T)[sp].[moe](G)[sp].d(C)[sp].d(A)[sp].d(G)[sp].d(A)[sp].d(G)[sp].d(G)[sp].d(T)[sp].d(G)[sp].d(A)[sp].[moe](A)[sp].[moe](G)[sp].[moe](C)[sp].[moe](G)[sp].[moe](A)[sp].[moe](A)}$$$$V2.0 | 39% and 45% | 
RNA1{[moe](A)[sp].[moe](G)[sp].[moe](G)[sp].d(A)[sp].d(G)[sp].d(T)[sp].d(T)[sp].d(C)[sp].d(C)[sp].d(G)[sp].d(C)[sp].d(A)[sp].d(G)[sp].[cEt](T)[sp].[cEt](A)[sp].[cEt](T)}$$$$V2.0 | 59% and 58% | 
RNA1{[moe](C)[sp].[moe](A)[sp].[moe](C)[sp].[moe](T)[sp].[moe](A)[sp].[moe](G)[sp].d(T)[sp].d(A)[sp].d(A)[sp].d(A)[sp].d(C)[sp].d(T)[sp].d(G)[sp].d(A)[sp].d(G)[sp].[moe](C)[sp].[moe](C)}$$$$V2.0 | 87% and 72% | target mRNA inhibition (HepG2, 0.0092593 µM): 12%; target mRNA inhibition (HepG2, 0.0277778 µM): 40%; target mRNA inhibition (HepG2, 0.0833333 µM): 42%; target mRNA inhibition (HepG2, 0.25 µM): 65%
RNA1{[moe](G)[sp].[moe](T)[sp].d(G)[sp].d(C)[sp].d(A)[sp].d(G)[sp].d(A)[sp].d(G)[sp].d(G)[sp].d(T)[sp].d(G)[sp].[moe](A)[sp].[moe](A)[sp].[moe](G)[sp].[moe](C)[sp].[moe](G)[sp].[moe](A)}$$$$V2.0 | 70% and 66% | 
RNA1{[moe](G)[sp].[moe](A)[sp].[moe](A)[sp].[moe](G)[sp].d(T)[sp].d(C)[sp].d(C)[sp].d(A)[sp].d(C)[sp].d(C)[sp].d(A)[sp].d(C)[sp].d(G)[sp].[moe](A)[sp].[moe](G)[sp].[moe](T)[sp].[moe](C)}$$$$V2.0 | 48% and 36% | 
RNA1{[moe](C)[sp].[moe](A)[sp].d(G)[sp].d(A)[sp].d(G)[sp].d(G)[sp].d(T)[sp].d(G)[sp].d(A)[sp].d(A)[sp].d(G)[sp].[moe](C)[sp].[moe](G)[sp].[moe](A)[sp].[moe](A)[sp].[moe](G)}$$$$V2.0 | 35% and 36% | 
RNA1{[moe](T)[sp].[moe](G)[sp].[moe](G)[sp].d(A)[sp].d(G)[sp].d(C)[sp].d(C)[sp].d(A)[sp].d(C)[sp].d(C)[sp].d(A)[sp].d(G)[sp].[moe](C)[sp].[moe](A)[sp].[moe](G)[sp].[moe](G)}$$$$V2.0 | 58% and 57% | 
RNA1{[moe](C)[sp].[cEt](A)[sp].[cEt](C)[sp].d(T)[sp].d(G)[sp].d(A)[sp].d(A)[sp].d(C)[sp].d(A)[sp].d(A)[sp].d(A)[sp].d(T)[sp].d(G)[sp].[cEt](G)[sp].[cEt](C)[sp].[moe](A)}$$$$V2.0 | 65% and 75% | 
RNA1{[moe](G)[sp].[moe](A)[sp].[moe](G)[sp].[moe](A)[sp].[moe](A)[sp].d(G)[sp].d(T)[sp].d(C)[sp].d(C)[sp].d(A)[sp].d(C)[sp].d(C)[sp].d(A)[sp].d(C)[sp].[moe](G)[sp].[moe](A)[sp].[moe](G)}$$$$V2.0 | 20% and 13% | 
RNA1{[moe](A)[sp].[moe](C)[sp].d(G)[sp].d(G)[sp].d(G)[sp].d(C)[sp].d(A)[sp].d(A)[sp].d(C)[sp].d(A)[sp].d(T)[sp].[moe](A)[sp].[moe](C)[sp].[moe](C)[sp].[moe](T)[sp].[moe](T)[sp].[moe](G)}$$$$V2.0 | 46% | 
RNA1{[moe](T)[sp].[moe](G)[sp].[moe](G)[sp].[moe](A)[sp].d(G)[sp].d(C)[sp].d(C)[sp].d(A)[sp].d(C)[sp].d(C)[sp].d(A)[sp].d(G)[sp].d(C)[sp].[moe](A)[sp].[moe](G)[sp].[moe](G)}$$$$V2.0 | 47% and 35% | 
RNA1{[moe](C)[sp].[moe](G)[sp].d(C)[sp].d(A)[sp].d(G)[sp].d(T)[sp].d(A)[sp].d(T)[sp].d(G)[sp].d(G)[sp].d(A)[sp].[moe](T)[sp].[moe](C)[sp].[moe](G)[sp].[moe](G)[sp].[moe](C)}$$$$V2.0 | 76% and 71% | target mRNA inhibition (HepG2, 0.0092593 µM): 6%; target mRNA inhibition (HepG2, 0.0277778 µM): 31%; target mRNA inhibition (HepG2, 0.0833333 µM): 56%; target mRNA inhibition (HepG2, 0.25 µM): 80%
RNA1{[moe](A)[sp].[cEt](G)[sp].[cEt](C)[sp].d(G)[sp].d(A)[sp].d(A)[sp].d(G)[sp].d(T)[sp].d(G)[sp].d(C)[sp].d(A)[sp].d(C)[sp].d(A)[sp].[cEt](C)[sp].[cEt](G)[sp].[moe](G)}$$$$V2.0 | 83% and 82% | target mRNA inhibition (HepG2, 0.0092593 µM): 19%; target mRNA inhibition (HepG2, 0.0277778 µM): 52%; target mRNA inhibition (HepG2, 0.0833333 µM): 86%; target mRNA inhibition (HepG2, 0.25 µM): 93%
RNA1{[moe](A)[sp].[moe](A)[sp].[moe](G)[sp].[cEt](C)[sp].[cEt](G)[sp].d(A)[sp].d(A)[sp].d(G)[sp].d(T)[sp].d(G)[sp].d(C)[sp].d(A)[sp].[cEt](C)[sp].[cEt](A)[sp].[moe](C)[sp].[moe](G)[sp].[moe](G)}$$$$V2.0 |  | target mRNA inhibition (HepG2, 0.009375 µM): 23%; target mRNA inhibition (HepG2, 0.01875 µM): 19%; target mRNA inhibition (HepG2, 0.0375 µM): 39%; target mRNA inhibition (HepG2, 0.075 µM): 49%; target mRNA inhibition (HepG2, 0.15 µM): 66%; target mRNA inhibition (HepG2, 0.3 µM): 75%
RNA1{[moe](A)[sp].[moe](G)[sp].[moe](A)[sp].[moe](A)[sp].[moe](G)[sp].[moe](T)[sp].d(C)[sp].d(C)[sp].d(A)[sp].d(C)[sp].d(C)[sp].d(A)[sp].d(C)[sp].d(G)[sp].d(A)[sp].[moe](G)[sp].[moe](T)}$$$$V2.0 | 39% and 30% | 
RNA1{[moe](C)[sp].[moe](T)[sp].[moe](G)[sp].d(A)[sp].d(A)[sp].d(C)[sp].d(A)[sp].d(A)[sp].d(A)[sp].d(T)[sp].d(G)[sp].d(G)[sp].d(C)[sp].[cEt](A)[sp].[cEt](C)[sp].[cEt](T)}$$$$V2.0 | 64% and 74% | 
RNA1{[moe](A)[sp].[moe](C)[sp].[moe](T)[sp].[moe](G)[sp].[moe](G)[sp].d(A)[sp].d(G)[sp].d(C)[sp].d(C)[sp].d(A)[sp].d(C)[sp].d(C)[sp].d(A)[sp].d(G)[sp].[moe](C)[sp].[moe](A)}$$$$V2.0 | 54% and 48% | 
RNA1{[moe](G)[sp].[moe](A)[sp].[moe](G)[sp].d(G)[sp].d(C)[sp].d(A)[sp].d(T)[sp].d(A)[sp].d(G)[sp].d(C)[sp].d(A)[sp].d(G)[sp].d(C)[sp].[cEt](A)[sp].[cEt](G)[sp].[cEt](G)}$$$$V2.0 | 75% and 74% | 
RNA1{[moe](G)[sp].[moe](G)[sp].[moe](T)[sp].[moe](G)[sp].[moe](A)[sp].d(A)[sp].d(G)[sp].d(C)[sp].d(G)[sp].d(A)[sp].d(A)[sp].d(G)[sp].d(T)[sp].d(G)[sp].[moe](C)[sp].[moe](A)[sp].[moe](C)}$$$$V2.0 | 64% and 66% | 
RNA1{[moe](G)[sp].[moe](C)[sp].[moe](A)[sp].[moe](G)[sp].[moe](A)[sp].d(G)[sp].d(G)[sp].d(T)[sp].d(G)[sp].d(A)[sp].d(A)[sp].d(G)[sp].d(C)[sp].d(G)[sp].[moe](A)[sp].[moe](A)[sp].[moe](G)}$$$$V2.0 | 76% and 59% | 
RNA1{[moe](A)[sp].[moe](C)[sp].[moe](C)[sp].d(A)[sp].d(A)[sp].d(T)[sp].d(T)[sp].d(T)[sp].d(A)[sp].d(T)[sp].d(G)[sp].d(C)[sp].[moe](C)[sp].[moe](T)[sp].[moe](A)[sp].[moe](C)[sp].[moe](A)}$$$$V2.0 | 31% and 33% | 
RNA1{[moe](A)[sp].[moe](G)[sp].[moe](A)[sp].d(G)[sp].d(G)[sp].d(T)[sp].d(G)[sp].d(A)[sp].d(A)[sp].d(G)[sp].d(C)[sp].d(G)[sp].[moe](A)[sp].[moe](A)[sp].[moe](G)[sp].[moe](T)}$$$$V2.0 | 51% and 44% | 
RNA1{[moe](G)[sp].[moe](C)[sp].[moe](A)[sp].d(G)[sp].d(A)[sp].d(G)[sp].d(G)[sp].d(T)[sp].d(G)[sp].d(A)[sp].d(A)[sp].d(G)[sp].[moe](C)[sp].[moe](G)[sp].[moe](A)[sp].[moe](A)}$$$$V2.0 | 58% and 64% | 
RNA1{[moe](A)[sp].[moe](C)[sp].[moe](T)[sp].[moe](G)[sp].[moe](G)[sp].d(A)[sp].d(G)[sp].d(C)[sp].d(C)[sp].d(A)[sp].d(C)[sp].d(C)[sp].d(A)[sp].d(G)[sp].[moe](C)[sp].[moe](A)[sp].[moe](G)}$$$$V2.0 | 46% and 39% | 
RNA1{[moe](A)[sp].[moe](T)[sp].[moe](T)[sp].d(T)[sp].d(A)[sp].d(T)[sp].d(G)[sp].d(C)[sp].d(C)[sp].d(T)[sp].d(A)[sp].d(C)[sp].[moe](A)[sp].[moe](G)[sp].[moe](C)[sp].[moe](C)}$$$$V2.0 | 38% and 47% | 
RNA1{[moe](A)[sp].[moe](T)[sp].d(T)[sp].d(T)[sp].d(A)[sp].d(T)[sp].d(G)[sp].d(C)[sp].d(C)[sp].d(T)[sp].d(A)[sp].[moe](C)[sp].[moe](A)[sp].[moe](G)[sp].[moe](C)[sp].[moe](C)[sp].[moe](T)}$$$$V2.0 | 71% and 65% | target mRNA inhibition (HepG2, 0.0092593 µM): 0%; target mRNA inhibition (HepG2, 0.0277778 µM): 21%; target mRNA inhibition (HepG2, 0.0833333 µM): 22%; target mRNA inhibition (HepG2, 0.25 µM): 53%
